Laboratory results as given in patent publication US20240216444A1, “DESIGNED BACTERIAL COMPOSITIONS” (Seres Therapeutics, Inc., priority 2015, published 2024).

Tests used:
[1] = tested on: C. difficile carbon sources; test: Carbon source utilization, 87 carbon sources in three base media, OD600 and acid production (Example 3B); type: cell-based; design: key: “+” and “w” refer to “positive” and “weak” utilization of the carbon source, respectively; “+” and “w” refer to “positive” and “weak” utilization of the carbon source, respectively; conditions: for utilization of carbon source NAG: NAG (N-acetylglucosamine)
Description: Three C. difficile strains and 12 non-C. difficile bacterial strains were profiled using a panel of carbon sources. As used herein, unless otherwise indicated, carbon sources includes all sources tested as growth substrates in the experiments herein. The three C. difficile strains were Clostridium difficile ATCC 9689, Clostridium difficile ATCC 43593, and Clostridium difficile ATCC 43255, all of which are available from the American Type Culture Collection (ATCC).
Growth of the strains was tested on 87 different carbon sources in a 96-well plate format. The panel contained 34 carbon sources reported to be utilized by C. difficile in the literature (Hafiz and Oakley. 1976 J Med Microbiol 9:129-36; Wilson and Perini. 1988 Infection and Immunity 56:2610-14; Bergey and Holt. Bergey's Manual of Determinative Bacteriology. Baltimore: Williams & Wilkins, 1994; Sebaihia et al. 2006 Nature Genetics 38:779-786) including amino acids, mono-, di-, tri- and polysaccharides, glucoside and sugar alcohols. Carbon sources were added at 0.5% into three different base media (Base medium 1 SSNC composition: beef extract 1 g/L, yeast extract 2 g/L, bacto soytone 6 g/L, NaCl 4 g/L, KH2PO4 5.44 g/L, MgSO4 2 mM, CaCl2 1 mM, MnCl2 0.1 mM, cysteine hydrochloride 0.25 g/L, hemin 10 mg/L, menadione 1 mg/L, MOPS 6.3 g/L, pH 7; Base medium 2 SPOSCR composition: beef extract 1 g/L, yeast extract 2 g/L, bacto soytone 6 g/L, NaCl 4 g/L, KH2PO4 5.44 g/L, MgSO4 2 mM, CaCl2) 1 mM, MnCl2 0.1 mM, cysteine hydrochloride 0.25 g/L, hemin 10 mg/L, menadione 1 mg/L, MOPS 8.4 g/L, NaHCO3 0.4%, pH 7; Base medium 3 YCFA: casitone 10 g/L, yeast extract 2.5 g/L, cysteine hydrochloride 1 g/L, hemin 10 mg/L, ATCC vitamin solution 10 mL/L, ATCC trace element solution 10 mL/L, K2HPO4 0.45 g/L, KH2PO4 0.45 g/L, (NH4)2SO4 0.9 g/L, MgSO4×7H2O 90 mg/L, CaCl2) 90 mg/L, acetic acid 33 mM, propionic acid 9 mM, isobutyric acid 1 mM, isovaleric acid 1 mM, valeric acid 1 mM, pH 7).
Positive growth was scored by measuring optical density at 600 nm and comparing it to growth in base medium without an added carbon source. For two, base media acid production was also scored by measuring optical density at 558 nm of pH-indicator phenol red mixed with spent medium from each culture.

[2] = tested on: HSDH activity (7-, 3- or 12-hydroxyl groups) on cholic, chenodeoxycholic, deoxycholic and lithocholic acid; test: LC-MS screen for hydroxysteroid dehydrogenase (HSDH) activity; type: biochemical; conditions: LC-MS
[3] = tested on: 7α-dehydroxylation of cholic acid and chenodeoxycholic acid; test: LC-MS screen for 7α-dehydroxylation (7α-OH) activity; type: biochemical; conditions: LC-MS
[4] = SCFA profile of bacterial culture supernatants by GC-MS; conditions: GC-MS; fucose as carbon source
Description: The same bacterial culture supernatants used for HDAC inhibition assays described supra were submitted to GC-MS analysis to determine which SCFAs underlie the observed inhibition of HDAC. The method employed (MSOmics, Denmark) measures formate, acetate, propionate, butyrate, isobutyrate (2-methyl-propionate), isovalerate (3-methyl-butyrate), valerate (pentanoate), 4-methyl-pentanoate, caproate (hexanoate), and heptanoate. […] Numbers in Table 11 indicate detected SCFA concentration. B=butyrate; P=propionate; IB=isobutyrate, and IV=isovalerate.

[5] = tested on: bile salt hydrolase (BSH) activity on conjugated bile acids; test: LC-MS screen for bile salt hydrolase (BSH) activity; conditions: for BSH gCA: substrate gCA; for BSH gCDCA: substrate gCDCA; for BSH t-aMCA: substrate t-aMCA; for BSH t-bMCA: substrate t-bMCA; for BSH tCA: substrate tCA; for BSH tCDCA: substrate tCDCA
Description: To conduct the assay, briefly, bacteria were grown on permissive agar media plates for 24 to 48 hours to generate sufficient biomass to carry out assays. The bacterial lawns were resuspended in PBS to create a homogenous suspension that was then used for the BSH assay. To assay for BSH activity, bacterial suspensions were incubated with two separate mixtures of four distinct conjugated bile acids, each at concentration of 150 μg/ml, for 4 hours at 37° C. under anaerobic conditions. The reaction mixture was then extracted with an equal volume of acetonitrile, spun down to pellet bacteria and the supernatant filtered through a 0.2 μM filter to generate a sample for LC-MS analysis. Bile acids were determined using an Agilent 1260 HPLC coupled to a Bruker Compact qTOF MS. Samples were run on a bidentate C18 column using an acetonitrile:water buffer system to separate bile acids which were then ionized in negative mode and identified using a qTOF-MS. BSH activity was determined by the formation of deconjugated bile acid products that were verified by comparison to known standards and quantified, if necessary, using standard curves.

[6] = tested on: HDAC enzymes (HeLa nuclear extract); test: HDAC inhibition activity in supernatants of cultures grown in different carbon sources; conditions: 25% HDAC inhibition as cut off
Description: To determine whether the HDAC inhibition was affected by the type and level of carbon source available to a bacterial species, HDAC inhibition by supernatants derived from a selection of bacterial species used in DBCs was determined. In these experiments, bacteria were grown in a variety of carbon sources including mono-, di-, polysaccharides, and porcine mucine. Briefly, 600 μL bacterial cultures in peptone/yeast extract medium (PY) supplemented with 0.5% of the selected carbon sources were inoculated in 96 deep well plates, grown for 4 days, then the microbial cells were pelleted by centrifugation, and 15 μL of the culture medium (supernatant) was used for the HDAC assay with HeLa nuclear extract as described above. Because HDAC activity is reduced at low pH (Latham et al. 2012 Nucl Acid Res 40:4794-803) and the microbial cultures had pH as low as 5, to ensure that the final pH of the assay was not reduced by the addition of supernatant, 10 μL of a 1M Tris pH 8 solution was added per well to bring the final Tris buffer concentration to 75 mM. Thus, assays were performed with 15 μL supernatant, 10 μL 1M Tris pH 8, 25 μL of assay buffer and 50 μL of diluted HeLa nuclear extract, which were preincubated for 30 minutes prior to the addition of developing reagent. Luminescence was measured after 30 minutes.

Clostridium bolteae
utilization of carbon source Citrus pectin [1]: +
utilization of carbon source NAG [1]: +
utilization of carbon source cysteine [1]: w
utilization of carbon source fructose [1]: +
utilization of carbon source glucose [1]: +
utilization of carbon source mannose [1]: +
utilization of carbon source melezitose ([1]; melezitose): +
utilization of carbon source oxalate [1]: +
utilization of carbon source propanediol ([1]; propanediol): +
utilization of carbon source rhamnose ([1]; rhamnose): +
utilization of carbon source ribose ([1]; ribose): +
utilization of carbon source serine [1]: w
utilization of carbon source sialic acid ([1]; sialic acid): +
utilization of carbon source sucrose [1]: +
utilization of carbon source trehalose [1]: +
utilization of carbon source tryptophan ([1]; tryptophan): w
utilization of carbon source xylose ([1]; xylose): +
HSDH 3a [2]: + (‘+’ indicates greater than 50-fold increase in levels of product bile acid, suggesting strong activity)
HSDH 7a [2]: −
HSDH 12a [2]: −
7a Dehydrox CA ([3]; substrate CA): −
7a Dehydrox CDCA ([3]; substrate CDCA): −
propionate production [4]: produced propionate but only when supplied with fucose as a carbon source
BSH gCA [5]: + (‘+’ indicates greater than 50-fold increase in levels of product bile acid, suggesting strong activity)
BSH gCDCA [5]: + (‘+’ indicates greater than 50-fold increase in levels of product bile acid, suggesting strong activity)
BSH t-aMCA [5]: + (‘+’ indicates greater than 50-fold increase in levels of product bile acid, suggesting strong activity)
BSH t-bMCA [5]: + (‘+’ indicates greater than 50-fold increase in levels of product bile acid, suggesting strong activity)
BSH tCA [5]: + (‘+’ indicates greater than 50-fold increase in levels of product bile acid, suggesting strong activity)
BSH tCDCA [5]: + (‘+’ indicates greater than 50-fold increase in levels of product bile acid, suggesting strong activity)
HDAC inhibition when alternative nutrient sources are tested [6]: positive

Clostridium disporicum
utilization of carbon source Apple pectin ([1]; Apple pectin): w
utilization of carbon source Citrus pectin [1]: +
utilization of carbon source NAG [1]: +
utilization of carbon source arbutin ([1]; arbutin): +
utilization of carbon source cellobiose ([1]; cellobiose): +
utilization of carbon source cyclodextrin ([1]; cyclodextrin): +
utilization of carbon source cysteine [1]: w
utilization of carbon source esculin ([1]; esculin): +
utilization of carbon source fructose [1]: +
utilization of carbon source glucose [1]: +
utilization of carbon source glutamine ([1]; glutamine): w
utilization of carbon source glycogen ([1]; glycogen): +
utilization of carbon source mannose [1]: +
utilization of carbon source oxalate [1]: w
utilization of carbon source salicin ([1]; salicin): +
utilization of carbon source serine [1]: w
utilization of carbon source starch ([1]; starch): +
utilization of carbon source sucrose [1]: +
utilization of carbon source threonine ([1]; threonine): w
utilization of carbon source trehalose [1]: +
HSDH 3a [2]: −
HSDH 7a [2]: + (‘+’ indicates greater than 50-fold increase in levels of product bile acid, suggesting strong activity)
HSDH 12a [2]: +/− (‘+/−’ indicates ≤50-fold change in product bile acid levels, suggesting weak activity)
HSDH 3a ([2]; 3a-HSDH): −
HSDH 7a ([2]; 7a-HSDH): + (‘+’ indicates greater than 50-fold increase in levels of product bile acid, suggesting strong activity)
HSDH 12a ([2]; 12a-HSDH): −
7a Dehydrox CA ([3]; substrate CA): −
7a Dehydrox CDCA ([3]; substrate CDCA): −
7a Dehydrox CDCA ([3]; substrate chenodeoxycholic acid): −
7a Dehydrox CA ([3]; substrate cholic acid): −
propionate production [4]: produced propionate but only when supplied with fucose as a carbon source
BSH gCA [5]: −
BSH gCDCA [5]: +/− (‘+/−’ indicates ≤50-fold change in product bile acid levels, suggesting weak activity)
BSH t-aMCA [5]: + (‘+’ indicates greater than 50-fold increase in levels of product bile acid, suggesting strong activity)
BSH t-bMCA [5]: + (‘+’ indicates greater than 50-fold increase in levels of product bile acid, suggesting strong activity)
BSH tCA [5]: +/− (‘+/−’ indicates ≤50-fold change in product bile acid levels, suggesting weak activity)
BSH tCDCA [5]: + (‘+’ indicates greater than 50-fold increase in levels of product bile acid, suggesting strong activity)
HDAC inhibition when alternative nutrient sources are tested [6]: positive
